Results: ChEMBL document CHEMBL2384968, “Characterization of maleimide-based glycogen synthase kinase-3 (GSK-3) inhibitors as stimulators of steroidogenesis” (J Med Chem, 2013)
Converted amounts (≈) assume the structure as drawn.

Tests used:
[1] = target: Glycogen synthase kinase-3 beta (Homo sapiens, UniProt P49841); test: Inhibition of human GSK3beta-mediated YRRAAVPPSPSLSRHSSPHQ(pS)EDEEE phosphorylation
[2] = Cytotoxicity against mouse MA-10 cells at 0.1 to 100 uM after 2 hrs by MTT assay; assay type: cell-based; conditions: ma-10, 2 h
[3] = Cytotoxicity against mouse MA-10 cells at 100 uM after 2 hrs by MTT assay; assay type: cell-based; conditions: ma-10, 2 h
[4] = Kinetic aqueous solubility of the compound by HPLC analysis; assay type: physicochemical; conditions: read-out: Kinetic_solubility

Glycogen synthase kinase-3 beta, sequence (P49841 whole entry): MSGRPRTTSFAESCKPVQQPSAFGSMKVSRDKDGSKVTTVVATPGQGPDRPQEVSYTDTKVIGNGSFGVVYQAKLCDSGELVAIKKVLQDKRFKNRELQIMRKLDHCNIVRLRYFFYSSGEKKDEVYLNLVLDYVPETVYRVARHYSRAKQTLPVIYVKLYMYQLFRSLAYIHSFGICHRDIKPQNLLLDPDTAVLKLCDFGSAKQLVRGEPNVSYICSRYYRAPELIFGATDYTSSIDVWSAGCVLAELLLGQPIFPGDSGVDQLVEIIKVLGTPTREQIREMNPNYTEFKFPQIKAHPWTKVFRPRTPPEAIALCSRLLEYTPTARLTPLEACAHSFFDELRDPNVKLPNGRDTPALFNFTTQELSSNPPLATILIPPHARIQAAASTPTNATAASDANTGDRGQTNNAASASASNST

Row | Compound | IC50 [1] | Activity [2] | Activity [3] | solubility kinetic [4]
1 | O=C1NC(=O)C(c2cn(CCCO)c3ccc(F)cc23)=C1c1coc2ccccc12 | 15 nM | – | – | –
2 | O=C1NC(=O)C(c2cn(CCO)c3ccc(Br)cc23)=C1c1coc2ccccc12 | 21.4 nM | – | – | –
3 | O=C1NC(=O)C(c2cn3c4c(cc(F)cc24)CN(C(=O)N2CCC(N4CCCCC4)CC2)CC3)=C1c1coc2ccccc12 | 0.53 nM | Toxic | Toxic | –
4 | COCCn1cc(C2=C(c3coc4ccccc34)C(=O)NC2=O)c2cc(F)ccc21 | 39.7 nM | – | – | –
5 | CNCCCn1cc(C2=C(c3coc4ccccc34)C(=O)NC2=O)c2cc(F)ccc21 | 202 nM | – | – | –
6 | CNCCCn1cc(C2=C(c3coc4ccccc34)C(=O)NC2=O)c2cc(Br)ccc21 | 404 nM | – | – | –
7 | O=C1NC(=O)C(c2cn3c4c(cccc24)CN(C(=O)Cc2ccncc2)CC3)=C1c1coc2ccccc12 | 0.59 nM | Toxic | Toxic | –
8 | O=C1NC(=O)C(c2cn3c4c(cc(F)cc24)CN(C(=O)N2CCOCC2)CC3)=C1c1coc2ccccc12 | 0.013 nM | Toxic | Toxic | –
9 | COCCn1cc(C2=C(c3coc4ccccc34)C(=O)NC2=O)c2cc(Br)cnc21 | 25.2 nM | Non-toxic | Non-toxic | –
10 | Cn1cc(C2=C(c3coc4ccccc34)C(=O)NC2=O)c2cc(Br)ccc21 | – | Non-toxic | Non-toxic | –
11 | Cn1cc(C2=C(c3cnc4ccccn34)C(=O)NC2=O)c2cc(Br)ccc21 | 0.87 nM | Non-toxic | – | 35 µg/mL (≈ 83.1 µM)
12 | O=C1NC(=O)C(c2cn3c4c(cccc24)CNCC3)=C1c1coc2ccccc12 | 4.2 nM | – | – | 240 µg/mL (≈ 626 µM)
13 | Cn1cc(C2=C(c3coc4ccccc34)C(=O)NC2=O)c2cccc(CCOC(C)(C)C)c21 | 148 nM | – | – | –
14 | O=C1NC(=O)C(c2cn3c4c(cc(F)cc24)CNCC3)=C1c1coc2ccccc12 | 3.7 nM | Toxic | Toxic | –
15 | NCCn1cc(C2=C(c3coc4ccccc34)C(=O)NC2=O)c2cc(Br)ccc21 | 116 nM | – | – | 180 µg/mL (≈ 400 µM)
16 | O=C1NC(=O)C(c2cn(CCO)c3ccc(F)cc23)=C1c1coc2ccccc12 | 4.8 nM | – | – | –

Row | Compound | IC50 [1] | Activity [2] | Activity [3] | solubility kinetic [4]
17 | COCCn1cc(C2=C(c3coc4ccccc34)C(=O)NC2=O)c2cc(Br)ccc21 | 82.3 nM | – | – | –
18 | Cn1cc(C2=C(c3cnc4ccccn34)C(=O)NC2=O)c2cc3c(cc21)OCO3 | 5.3 nM | – | – | –
19 | O=C1NC(=O)C(c2cn3c4c(cc(F)cc24)CN(C(=O)N2CCCCC2)CC3)=C1c1coc2ccccc12 | 1.9 nM | Non-toxic | – | –
20 | O=C1NC(=O)C(c2cn3c4c(cccc24)CN(C(=O)c2cnccn2)CC3)=C1c1coc2ccccc12 | 0.2 nM | Toxic | Toxic | –
21 | COCCn1cc(C2=C(c3coc4ccccc34)C(=O)NC2=O)c2cc(OC)ncc21 | 127 nM | – | – | –
22 | Cn1cc(C2=C(c3coc4ccccc34)C(=O)NC2=O)c2cccnc21 | 17.6 nM | – | – | –
23 | COCCn1cc(C2=C(c3coc4ccccc34)C(=O)NC2=O)c2cccnc21 | 58.2 nM | Toxic | Toxic | –
24 | COCCn1cc(C2=C(c3coc4ccccc34)C(=O)NC2=O)c2cc(F)c(F)cc21 | 35.7 nM | Toxic | Toxic | –
25 | COCCc1cccc2c(C3=C(c4coc5ccccc45)C(=O)NC3=O)cn(CCOC)c12 | 114 nM | Toxic | Toxic | –
26 | NCCn1cc(C2=C(c3coc4ccccc34)C(=O)NC2=O)c2cc(F)ccc21 | 41.1 nM | – | – | –
27 | O=C1NC(=O)C(c2cn3c4c(cc(Br)cc24)CNCC3)=C1c1coc2ccccc12 | 11.5 nM | Toxic | Toxic | –
28 | COCCc1cccc2c(C3=C(c4coc5ccccc45)C(=O)NC3=O)cn(C)c12 | 11.2 nM | Non-toxic | Non-toxic | –
29 | COCCn1cc(C2=C(c3coc4ccccc34)C(=O)NC2=O)c2ccccc21 | 19.8 nM | Non-toxic | Non-toxic | –
30 | COc1cc2c(C3=C(c4coc5ccccc45)C(=O)NC3=O)cn(C)c2cn1 | 65.9 nM | Non-toxic | – | –
31 | Cn1cc(C2=C(c3coc4ccccc34)C(=O)NC2=O)c2cc(Br)cnc21 | 5.3 nM | Non-toxic | Non-toxic | –
